Results published in PubChem BioAssay AID248 (DTP/NCI, 2004).
Several values for one entry are separate records, joined by “and”; a condition that tells them apart may be missing. Equal values may be shown once. Toxic doses and inconclusive results are not listed. No stated cut-off is given here; in the data, active means T/C of 150% or more; inactive means T/C below 125%.

Tested on: L1210 leukemia ip in BDF1 mice, survival T/C
Assay: NCI In Vivo Anticancer Drug Screen. Data for tumor model L1210 Leukemia (intraperitoneal) in B6D2F1 (BDF1) mice
Settings: endpoint: mean survival time, higher = longer survival
Summary of the method: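 Transplantable tumor model; survival measured in treated vs vehicle control mice. Value = treated/control.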

[1] = dose: 100.0 mg/kg/injection, schedule: Q01DX001 (ip), vehicle: saline with Tween-80
[2] = dose: 100.0 mg/kg/injection, schedule: Q01DX009 (ip), vehicle: saline with Tween-80
[3] = dose: 100.0 mg/kg/injection, schedule: Q04DX003 (ip), vehicle: saline with Tween-80
[4] = dose: 200.0 mg/kg/injection, schedule: Q01DX001 (ip), vehicle: saline with Tween-80
[5] = dose: 200.0 mg/kg/injection, schedule: Q01DX009 (ip), vehicle: saline with Tween-80
[6] = dose: 200.0 mg/kg/injection, schedule: Q04DX003 (ip), vehicle: saline with Tween-80
[7] = dose: 400.0 mg/kg/injection, schedule: Q01DX001 (ip), vehicle: saline with Tween-80
[8] = dose: 400.0 mg/kg/injection, schedule: Q01DX009 (ip), vehicle: saline with Tween-80
[9] = dose: 400.0 mg/kg/injection, schedule: Q04DX003 (ip), vehicle: saline with Tween-80
[10] = dose: 25.0 mg/kg/injection, schedule: Q01DX009 (ip), vehicle: saline
[11] = dose: 50.0 mg/kg/injection, schedule: Q01DX009 (ip), vehicle: saline
[12] = dose: 200.0 mg/kg/injection, schedule: Q04DX002 (ip), vehicle: saline with Tween-80
[13] = dose: 400.0 mg/kg/injection, schedule: Q04DX002 (ip), vehicle: saline with Tween-80
[14] = dose: 100.0 mg/kg/injection, schedule: Q01DX009 (ip), vehicle: Klucel (hydroxypropylcellulose) (HPC)
[15] = dose: 100.0 mg/kg/injection, schedule: Q04DX003 (ip), vehicle: Klucel (hydroxypropylcellulose) (HPC)
[16] = dose: 200.0 mg/kg/injection, schedule: Q01DX009 (ip), vehicle: Klucel (hydroxypropylcellulose) (HPC)
[17] = dose: 200.0 mg/kg/injection, schedule: Q04DX003 (ip), vehicle: Klucel (hydroxypropylcellulose) (HPC)
[18] = dose: 400.0 mg/kg/injection, schedule: Q01DX009 (ip), vehicle: Klucel (hydroxypropylcellulose) (HPC)
[19] = dose: 400.0 mg/kg/injection, schedule: Q04DX003 (ip), vehicle: Klucel (hydroxypropylcellulose) (HPC)
[20] = dose: 100.0 mg/kg/injection, schedule: Q01DX009 (ip), vehicle: saline
[21] = dose: 100.0 mg/kg/injection, schedule: Q04DX002 (ip), vehicle: Klucel (hydroxypropylcellulose) (HPC)
[22] = dose: 12.5 mg/kg/injection, schedule: Q01DX009 (ip), vehicle: Klucel (hydroxypropylcellulose) (HPC)
[23] = dose: 25.0 mg/kg/injection, schedule: Q01DX009 (ip), vehicle: Klucel (hydroxypropylcellulose) (HPC)
[24] = dose: 50.0 mg/kg/injection, schedule: Q01DX009 (ip), vehicle: Klucel (hydroxypropylcellulose) (HPC)
[25] = dose: 100.0 mg/kg/injection, schedule: Q01DX001 (ip), vehicle: Klucel (hydroxypropylcellulose) (HPC)
[26] = dose: 200.0 mg/kg/injection, schedule: Q01DX001 (ip), vehicle: Klucel (hydroxypropylcellulose) (HPC)
[27] = dose: 400.0 mg/kg/injection, schedule: Q01DX001 (ip), vehicle: Klucel (hydroxypropylcellulose) (HPC)

Measured: T/C

OCC(O)COc1ccc(Cl)cc1 (stereo not drawn)
inactive: [1] 98 % of control | [2] 100 % of control and 110 % of control | [3] 98 % of control and 100 % of control | [4] 105 % of control | [5] 96 % of control and 100 % of control | [6] 96 % of control and 103 % of control | [7] 88 % of control | [8] 94 % of control | [9] 100 % of control

CN(N=O)P(=O)(Nc1ccccc1)Nc1ccccc1
inactive: [10] 111 % of control | [11] 117 % of control | dose: 66.0 mg/kg/injection, schedule: Q01DX009 (ip), vehicle: other 103 % of control | dose: 100.0 mg/kg/injection, schedule: Q01DX009 (ip), vehicle: other 100 % of control | dose: 100.0 mg/kg/injection, schedule: Q04DX003 (ip), vehicle: saline sonified 122 % of control | dose: 150.0 mg/kg/injection, schedule: Q01DX009 (ip), vehicle: other 88 % of control

Cc1cc(Cc2cc(C)c(C)c(C)c2C)c(C)c(C)c1C
inactive: dose: 100.0 mg/kg/injection, schedule: Q01DX001 (ip), vehicle: other 96 % of control | dose: 200.0 mg/kg/injection, schedule: Q01DX001 (ip), vehicle: other 95 % of control | dose: 400.0 mg/kg/injection, schedule: Q01DX001 (ip), vehicle: other 90 % of control

COC1OC(COC(C)=O)C(OC(C)=O)C1OC(C)=O (stereo not drawn)
inactive: dose: 100.0 mg/kg/injection, schedule: Q01DX001 (ip), vehicle: saline 102 % of control | dose: 200.0 mg/kg/injection, schedule: Q01DX001 (ip), vehicle: saline 104 % of control | dose: 400.0 mg/kg/injection, schedule: Q01DX001 (ip), vehicle: saline 93 % of control

CCCCCCC#CC(=O)OCCCCC
inactive: dose: 100.0 mg/kg/injection, schedule: Q04DX002 (ip), vehicle: saline with Tween-80 96 % of control | [12] 100 % of control | [13] 96 % of control

ON(C(=Nc1cccc2ccccc12)c1ccccc1)c1ccccc1
inactive: dose: 75.0 mg/kg/injection, schedule: Q01DX001 (ip), vehicle: carboxymethylcellulose (CMC) 97 % of control | dose: 150.0 mg/kg/injection, schedule: Q01DX001 (ip), vehicle: carboxymethylcellulose (CMC) 92 % of control | dose: 300.0 mg/kg/injection, schedule: Q01DX001 (ip), vehicle: carboxymethylcellulose (CMC) 98 % of control

CCCCNC(=O)Nc1ccc(OC)cc1OC
inactive: [14] 101 % of control | [15] 92 % of control | [16] 96 % of control | [17] 95 % of control | [18] 118 % of control | [19] 95 % of control

CCCCCCCCOC(=O)Nc1ccc(S(=O)(=O)CC)cc1
inactive: dose: 100.0 mg/kg/injection, schedule: Q01DX001 (ip), vehicle: carboxymethylcellulose (CMC) 91 % of control | dose: 200.0 mg/kg/injection, schedule: Q01DX001 (ip), vehicle: carboxymethylcellulose (CMC) 89 % of control | dose: 400.0 mg/kg/injection, schedule: Q01DX001 (ip), vehicle: carboxymethylcellulose (CMC) 89 % of control

CC1CCCNC1C (stereo not drawn)
inactive: [10] 95 % of control | [11] 103 % of control | [2] 102 % of control | [20] 100 % of control

O=C(NC(=S)Nc1cc(C(F)(F)F)ccc1Cl)c1cccc([N+](=O)[O-])c1
inactive: [1] 105 % of control | [2] 96 % of control and 108 % of control | [3] 99 % of control | [4] 103 % of control | [5] 92 % of control and 99 % of control | [12] 98 % of control and 118 % of control | [6] 103 % of control | [7] 87 % of control | [8] 92 % of control and 94 % of control | [13] 95 % of control and 102 % of control | [9] 89 % of control

COC(=O)C(=O)CC(=O)c1cccc(C)c1
inactive: [21] 100 % of control | dose: 200.0 mg/kg/injection, schedule: Q04DX002 (ip), vehicle: Klucel (hydroxypropylcellulose) (HPC) 103 % of control | dose: 400.0 mg/kg/injection, schedule: Q04DX002 (ip), vehicle: Klucel (hydroxypropylcellulose) (HPC) 92 % of control

NC(CSCC(N)=NCC1C2CC3CC(C2)CC1C3)=NCC1C2CC3CC(C2)CC1C3 (stereo not drawn)
inactive: [21] 96 % of control

CC1CCC(C(O)(C(=O)O)C2CCC(C)CC2)CC1 (stereo not drawn)
inactive: dose: 75.0 mg/kg/injection, schedule: Q01DX001 (ip), vehicle: other 104 % of control | dose: 150.0 mg/kg/injection, schedule: Q01DX001 (ip), vehicle: other 104 % of control

CCc1ccc(/C(C#N)=C/c2ccc(N(C)CCC#N)cc2)cc1
inactive: [22] 95 % of control | [23] 95 % of control | [24] 94 % of control

COC1OC2COC(c3ccccc3)OC(OC)(C2)C1NC(C)=O (stereo not drawn)
inactive: [25] 102 % of control | [26] 101 % of control | [27] 98 % of control

O=C(Nc1ccccc1F)Oc1ccc(C2CCCCC2)cc1
inactive: [2] 104 % of control | [5] 104 % of control | [8] 101 % of control

CN(C)CCCCC(C#N)(c1ccccc1)c1ccccc1
inactive: dose: 15.0 mg/kg/injection, schedule: Q01DX001 (ip), vehicle: saline 88 % of control | dose: 30.0 mg/kg/injection, schedule: Q01DX001 (ip), vehicle: saline 92 % of control

CCc1ccccc1NC(=O)C(c1ccccc1)c1ccccc1
inactive: [14] 100 % of control | [15] 100 % of control | [16] 105 % of control | [17] 93 % of control | [18] 96 % of control | [19] 90 % of control

C[C@]12CCC(=O)C=C1CC[C@@H]1[C@@H]2[C@@H](O)C[C@@]2(C)[C@H]1CC[C@]2(O)C(=O)CF
inactive: dose: 50.0 mg/kg/injection, schedule: Q01DX Z (sc), vehicle: steriod suspending solution 106 % of control | dose: 250.0 mg/kg/injection, schedule: Q01DX Z (sc), vehicle: steriod suspending solution 104 % of control | dose: 500.0 mg/kg/injection, schedule: Q01DX Z (sc), vehicle: steriod suspending solution 107 % of control

CCC(CC)C(N)=O
inactive: [25] 100 % of control | [26] 102 % of control | [27] 107 % of control

CC(O)c1cccc(NC(=O)Nc2ccc(Cl)c(Cl)c2)c1 (stereo not drawn)
inactive: [14] 96 % of control | [16] 98 % of control | [18] 96 % of control

Nc1ccc2[nH]c(=S)sc2c1
inactive: [2] 104 % of control | [5] 104 % of control | [8] 108 % of control

Cc1ccccc1CN1CCN(CCOC(c2ccccc2)c2ccccc2Cl)CC1 (stereo not drawn)
inactive: [22] 97 % of control | [23] 97 % of control | dose: 25.0 mg/kg/injection, schedule: Q04DX003 (ip), vehicle: Klucel (hydroxypropylcellulose) (HPC) 107 % of control | [24] 102 % of control | dose: 50.0 mg/kg/injection, schedule: Q04DX003 (ip), vehicle: Klucel (hydroxypropylcellulose) (HPC) 100 % of control | [15] 105 % of control | [17] 100 % of control

COc1cc2c(c3c1CCC(C)(C)O3)Cc1c(cc(OC)c(OC)c1CCC(C)(C)O)O2
inactive: [25] 103 % of control | [26] 96 % of control | [27] 92 % of control

O=C(O)CC(NC(=O)c1ccccc1)C(=O)O (stereo not drawn)
inactive: [11] 93 % of control | [20] 89 % of control | dose: 200.0 mg/kg/injection, schedule: Q01DX009 (ip), vehicle: saline 97 % of control

S=C(Nc1ccccc1)Nc1ccc(Cl)c(Cl)c1
inactive: dose: 12.5 mg/kg/injection, schedule: Q01DX009 (ip), vehicle: saline with Tween-80 95 % of control | dose: 25.0 mg/kg/injection, schedule: Q01DX009 (ip), vehicle: saline with Tween-80 92 % of control and 90 % of control | dose: 50.0 mg/kg/injection, schedule: Q01DX009 (ip), vehicle: saline with Tween-80 105 % of control | [2] 87 % of control and 91 % of control
